Measured values: US5696276A, “Process for preparing 5,8-dihydroxynaphthoquinone derivatives, novel 5,8-dihydroxynaphthoquinone derivatives and their use as anticancer agent” (Kuhnil Pharmaceutical Co., Ltd., priority 1993, dated 1997)
In brackets after ≈: the same amount, converted by molar mass.

Assays:
S-180 sarcoma cells = assay: Animal experiment using Sarcoma S-180 cells (survival of mouse); format: in vivo, male ICR mouse; conditions: ip, S-180 ICR mouse, intraperitoneal, 7 to 8 injections; for responders at 15 µmol/kg / responders at 10 µmol/kg / responders at 5 µmol/kg: 1200 h, read-out: Number of mouse survived for 50 days (converted); for responders at 15 µmol/kg / response vs control in vivo at 15 µmol/kg: daily dose 15 μmole (mg/kg/day given per compound); for response vs control in vivo at 15 µmol/kg / response vs control in vivo at 10 µmol/kg / response vs control in vivo at 5 µmol/kg: read-out: T/C; for responders at 10 µmol/kg / response vs control in vivo at 10 µmol/kg: daily dose 10 μmole (mg/kg/day given per compound); for responders at 5 µmol/kg / response vs control in vivo at 5 µmol/kg: daily dose 5 μmole (mg/kg/day given per compound)
Experimental: In this experiment, healthy male ICR mouse weighing 20 to 25 g were used as test animal and were fed with water and feed without any restriction in the chamber controlled at the temperature of 23° to 24° C. As the feed, the antibiotic-free feed for mouse was used.
S-180 cells which were incubated for 7 days within abdominal cavity of ICR mouse were separated together with ascites. To the separated cells was added sterilized cold physiological saline and the mixture was centrifuged with 400×g for 2 minutes to separate the cell precipitate. The separated cell precipitate was suspended again in sterilized cold physiological saline and then centrifuged to remove the supernatant. Only S-180 cells were taken, excluding any red bllod cells incorporated therein, washed three times with the same method as above, and then suspended to obtain the cell suspension in concentration of 10^7 cells/ml by counting the number of cells with a haemacytometer. Each 0.1 ml of this cell suspension was transplanted in an abdominal cavity.
After 24 hours from the transplantation, mouse were divided so that each group contains 8 to 9 mouse. The test sample was dissolved in a predetermined amount of dimethylsulfoxide to prepare the stock solution which was stored at 4° C. 30 μl of the stock solution was taken and then mixed with 1.5 ml of physiological saline. 0.1 ml of this mixture was intraperitoneally injected to the test animal. To the control group, 2% dimethylsulfoxide-physiological saline solution was injected. Meanwhile, doxorubicin which is used as the comparative drug was dissolved in 2% dimethylsulfoxide-physiological saline solution and then injected in an amount of 0.5 mg(titer)/kg. The schedule for injection comprises a total of 7 to 8 injections in the manner that after the transplantation of cancer cells 0.1 ml of the test sample per a day is administered for 2 to 4 days followed by the rest for one day. The survival rate was calculated on the basis of the date on which all of one control group is died (approximately 18 to 20 days). The survival rate (T/C, %) was calculated by the following equation as proposed in NIC's protocol: [formula]

K-562 cells = assay: Cytotoxic activity against K-562 cells; format: cell-based; conditions: Homo sapiens; K562 cells, 48 hours, 37° C.; read-out: ED50, cytotoxic activity against K562
Experimental: As in the test for the cytotoxic activity against L1210 cells, the test samples were dissoved in ethanol or dimethylsulfoxide in a certain concentration. 0.1 ml of the sample solution was mixed with 0.9 ml of a fresh medium to prepare the dilutions. To each two test tubes having a screw cap were added 100, 50, 25 μl, respectively, of the sample dilutions by means of a micropipet. To each test tube for the test group and the control group (2√n: n=number of the samples) was added 5 ml of the dilutions of HL-60 cells and K-562 cells which were cultured and activated before 24 hours from the beginning of experiment and then diluted in a concentration of 1×10^5 cells/mi. All test tubes were cultured for 48 hours in a CO2 incubator at 37° C. and then the number of cells was counted using a haemacytometer.
(§1) The ED50 value is defined as a concentration (μg/ml) of the sample which inhibits the growth of cancer cells by 50% of the control group and determined according to a method described in NIC's mannual (NIC=National Cancer Institue, U.S.A.). The growth rate Y(%) of cells in the presence of the test sample in each concentration was calculated according to the followign equation: […]
(§2) In the above equation, T means the average cell number per ml in the test group after incubation for 48 hours in the presence of the test samples in each concentration, C means the average cell number per ml in the control group after incubation for 48 hours, and Co means the average cell number per ml in the control group at the beginning of incubation. The Y(%) value at each concentration and log10 value of each concentration were obtained and the regression curve was constructed according to the following equation from those obtained values. In this case, when all the Y(%) value obtained at each concentration is greater than 55% or lower than 45%, the experiment was repeatedly conducted.
(§3) To construct the regression curve Y=A+BX the values A and B were obtained using the following equation. [formula]
(§4) In the above, the value N is the number of selected points which is greater than 2 and lower than, or identical with, the number of cencentration of the test sample, Xi is log(concentration) i, and Yi is the growth ratio at (concentration)i. The value of ED50 was obtained for those obtained slope and intercept.

A549 cancer cells = assay: Cytotoxic activity against A549 cancer cells (sulforhodamin B method); format: cell-based; conditions: Homo sapiens; A549 cells, SRB method, 48 hours; read-out: ED50, cytotoxic activity against A549
Experimental: The cytotoxic activity against A549 cancer cells was determined using a method for measuring sulforhodamin B (SRB), which was developed in the year 1989 by NIC for measuring anticancer activity of the drug in vitro. For the experiment, cells under subculturing were separated from the attached surface with trypsin-CDTA solution and then dispensed into a 24-well flat-bottom microplate (Falcon) so that the number of cells per well is 8×10^4 (A549). The microplate was incubated in a CO2 incubator for 24 hours to attach the dispensed cells to bottom. The medium was removed with aspirator. Then, 100 μl of the solution of the test compounds diluted in a log-dose of 6 kinds of concentration was added to each well containing cells, in a multiple of 3. The microplate was incubated for further 48 hours. In addition, the diluted solution of the test compounds above was filtered through a 0.22 μm filter, before addition to the cells, to keep the experiment under sterilized condition. The cells were incubated with the test compounds for 48 hours and then the medium was removed from each well. 100 μl of 10% trichloroacetic acid (TCA) was added to each well and then the plate was allowed to stand at 4° C. for one hour to fix the cells to the bottom of plate. After fixing the cells, the plate was washed 5 to 6 times with water to completely remove any remaining TCA solution and then dried at room temperature until water is no longer present. To the completely dried plate was added the dying solution of 0.4% SRB dissolved in 1% acetic acid in an amount of 250 μl per well to stain the cells for 30 minutes and then the plate was washed again 5 to 6 times with 1% acetic acid solution to remove the remaining SRB which is not bound to the cells. The stained cell plate was dried again at room temperature. Then, the dying solution was carefully dissolved in a certain amount of 10 mM Tris so that the O.D. value in the control group at 520 nm is 0.8-1.0 Å (optical density), and the optical density at 520nm was determined. The ED50 value was obtained from the determined optical density. To calculate the activity of the drug against cancer cells, the number of cells (Tz) at the beginning of the addition of drug, the number of cells (C) after incubation with the medium in the absence of drug for 48 hours and the number of cells (T) after incubation in the presence of drugs at each concentration for 48 hours were determined.
The anticancer activity of the test compounds was determined form the following equations. Specifically, in the […] the equation (T-Tz)/(C-Tz)×100 was used and in the case of Tz<T the equation (T-Tz)/Tz×100 was used. Then the IC50 value wich is the concentration of drug which inhibits the growth of cancer cells by 50% was calcualted from the above calculated values using a data regressive function of LOTUS programme and the cytotoxic activities of the test compounds were compared with each other.

L1210 cells = assay: Cytotoxic activity against L1210 cells; format: cell-based; conditions: Mus musculus; L1210 cells, 48 hours, 37° C.; read-out: ED50, cytotoxic activity against L1210
Experimental: To obtain L1210 cells in a logarithmic phase for cytotoxic activity test, in a 250 ml Erlenmeyer flask with a screw cap including Fisher medium warmed to 36° to 37° C. L1210 cells were adjusted to a concentration of 2-3×10^5 cells/ml and then cultured, before 24 hours from the beginning of experiment. Then, the culture solution thus obtained was suspended to prepare a L1210 cell suspension having a concentration of about 0.8-1.0×10^6 cells/ml. Test sample was dissoved in ethanol or dimethylsulfoxide in a certain concentration just before the experiment. 0.1 ml of the sample solution was diluted 10 times with 0.9 ml of a fresh medium. To each screw-capped test tube were added 100, 50, 25 μl, respectively, of the sample dilutions and then added 5 ml of the cell suspension (5×10^4 cells/ml) prepared above to use as the test group. To the test tubes for the control group (2√n: n=number of the samples), only 5 ml of the cell suspension was added. All test tubes were cultured for 48 hours in a CO2 incubator at 37° C. and then the number of cells was counted using a haemacytometer.
as §1, §2, §3, §4

SMILES	responders at 15 µmol/kg (S-180 sarcoma cells) [%]	response vs control in vivo at 15 µmol/kg (S-180 sarcoma cells) [%]	IC50 (K-562 cells) [µg/mL]	IC50 (A549 cancer cells) [µg/mL]	IC50 (L1210 cells) [µg/mL]	responders at 10 µmol/kg (S-180 sarcoma cells) [%]	response vs control in vivo at 10 µmol/kg (S-180 sarcoma cells) [%]	responders at 5 µmol/kg (S-180 sarcoma cells) [%]	response vs control in vivo at 5 µmol/kg (S-180 sarcoma cells) [%]
CC(C)CCOC(CCC(C)C)C1=CC(=O)c2c(O)ccc(O)c2C1=O (centres unmarked) [2-[1-(3-methylbutoxy)-4-methylpentyl]-5,8-dihydroxy-1,4-naphthoquinone]	0	186	0.09 (≈ 0.25 µM)	1.1 (≈ 3.05 µM)	0.2 (≈ 0.555 µM)	–	–	–	–
CCCCCCCCCCCCC(OC(C)=O)C1=CC(=O)c2c(O)ccc(O)c2C1=O (centres unmarked) [2-(1-acetoxytridecyl)-5,8-dihydroxy-1,4-naphthoquinone]	–	–	4.2 (≈ 9.76 µM)	15.8 (≈ 36.7 µM)	0.4 (≈ 0.929 µM)	14.3	131	–	–
COC(CCC(C)C)C1=CC(=O)c2c(O)ccc(O)c2C1=O (centres unmarked) [2-(1-methoxy-4-methylpentyl)-5,8-dihydroxy-1,4-naphthoquinone]	–	–	0.07 (≈ 0.23 µM)	1.5 (≈ 4.93 µM)	0.05 (≈ 0.164 µM)	0	126	–	–
CCCCCCCCCC(OC(C)=O)C1=CC(=O)c2c(O)ccc(O)c2C1=O (centres unmarked) [2-(1-acetoxydecyl)-5,8-dihydroxy-1,4-naphthoquinone]	–	–	0.1 (≈ 0.257 µM)	0.3 (≈ 0.772 µM)	0.4 (≈ 1.03 µM)	14.3	197	–	–
CC(C)CCC(O)C1=CC(=O)c2c(O)ccc(O)c2C1=O (centres unmarked) [2-(1-hydroxy-4-methylpentyl)-5,8-dihydroxy-1,4-naphthoquinone, reference compound]	–	–	0.01 (≈ 0.0344 µM)	0.9 (≈ 3.1 µM)	0.05 (≈ 0.172 µM)	–	–	0	120
CCCCCCCC(=O)OC(CCC(C)C)C1=CC(=O)c2c(O)ccc(O)c2C1=O (centres unmarked) [2-(1-octanoyloxy-4-methylpentyl)-5,8-dihydroxy-1,4-naphthoquinone]	0	131	0.6 (≈ 1.44 µM)	1.7 (≈ 4.08 µM)	0.5 (≈ 1.2 µM)	–	–	–	–
CCCCCCCC(=O)OC(CCCCC)C1=CC(=O)c2c(O)ccc(O)c2C1=O (centres unmarked) [2-(1-octanoyloxyhexyl)-5,8-dihydroxy-1,4-naphthoquinone]	0	95	0.3 (≈ 0.72 µM)	2.1 (≈ 5.04 µM)	0.2 (≈ 0.48 µM)	–	–	–	–
CCCCCC(=O)OC(CCCCC)C1=CC(=O)c2c(O)ccc(O)c2C1=O (centres unmarked) [2-(1-hexanoyloxyhexyl)-5,8-dihydroxy-1,4-naphthoquinone]	–	–	0.2 (≈ 0.515 µM)	0.3 (≈ 0.772 µM)	0.1 (≈ 0.257 µM)	0	151	–	–
CC(=O)OC(CCC(C)C)C1=CC(=O)c2c(O)ccc(O)c2C1=O (centres unmarked) [2-(1-acetoxy-4-methylpentyl)-5,8-dihydroxy-1,4-naphthoquinone]	–	–	0.07 (≈ 0.211 µM)	1.5 (≈ 4.51 µM)	0.05 (≈ 0.15 µM)	–	–	14.3	188
CCCCCC(=O)OC(CCC(C)C)C1=CC(=O)c2c(O)ccc(O)c2C1=O (centres unmarked)	–	–	0.05 (≈ 0.129 µM)	0.4 (≈ 1.03 µM)	0.3 (≈ 0.772 µM)	0	151	–	–
CCCCCCCCCCCCC(OC(=O)CCCCC)C1=CC(=O)c2c(O)ccc(O)c2C1=O (centres unmarked) [2-(1-hexanoyloxytridecyl)-5,8-dihydroxy-1,4-naphthoquinone]	–	–	> 20	> 20	1.5 (≈ 3.08 µM)	–	–	–	–
CCCCCCCCCC(OC(=O)CCCCCCC)C1=CC(=O)c2c(O)ccc(O)c2C1=O (centres unmarked) [2-(1-octanoyloxydecyl)-5,8-dihydroxy-1,4-naphthoquinone]	–	–	> 20	> 20	0.9 (≈ 1.9 µM)	–	–	–	–
CCCCC(O)C1=CC(=O)c2c(O)ccc(O)c2C1=O (centres unmarked) [2-(1-hydroxypentyl)-5,8-dihydroxy-1,4-naphthoquinone]	–	–	0.08 (≈ 0.29 µM)	0.5 (≈ 1.81 µM)	0.04 (≈ 0.145 µM)	–	–	–	–
CCCCCCCCCC(O)C1=CC(=O)c2c(OC)ccc(OC)c2C1=O (centres unmarked) [2-(1-hydroxydecyl)-5,8-dimethoxy-1,4-naphthoquinone]	–	–	1.6 (≈ 4.27 µM)	9.2 (≈ 24.6 µM)	1.4 (≈ 3.74 µM)	–	–	–	–
